# From patent US20260207735A1, “Pharmaceutical compositions, vaccines and their uses in the prevention or treatment of a persistent infection or of cancer” (Universitätsmedizin der Johannes Gutenberg-Universität Mainz, priority 2018, published 2026)
# Columns and labels:
# [1] = tested on: CD8+ T cell response; conditions: following transcutaneous immunization with imiquimod in mice; cited from earlier work
# [2] = tested on: influenza; conditions: combined with a vaccine, compared to the vaccine alone; cited from earlier work
# [3] = tested on: CD11c positive Dendritic cells (DCs); test: TLR7 mediated activation of splenic dendritic cells in vitro (CD40, CD80, CD86 by flow cytometry); type: cell-based, C57BL/6 mice; conditions: R-848 10 μg/ml, 24 h incubation; NAC 5 mM
# Experimental: CD11c positive Dendritic cells (DCs) were purified from spleens from C57BL/6 mice) as described in Weber M et al. (2014) and activated as indicated with the TLR7/8 agonist R-848 (10 μg/ml), anthralin (dithranol), N-acetyl cysteine (NAC 5 mM) or left untreated in Iscoves's medium+5% FCS (Michael Weber et al., “Donor and Host B Cell-Derived IL-10 Contributes to Suppression of Graft-Versus-Host Disease.,” European Journal of Immunology 44, no. 6 (June 2014): 1857-65, doi:10.1002/eji.201344081).
# After 24 h incubation, the cells were harvested, labeled with specific mAbs and analyzed by flow cytometry for the activation markers CD40, CD80 and CD86 gating on live (propidium iodide negative, CD11c/MHC class II positive DCs).
# Spleens of C57BL6/J wildtype mice were harvested, picked and digested for 45 min with type 2 collagenase (50 U/ml from Worcester, Pappenheim, Germany) and stopped by adding 2 mM EDTA (from Sigma-Aldrich, Taufkirchen, Germany). After a hypotonic lysis step DCs were isolated using CD11c MicroBeads UltraPure (Miltenyi Biotec, Germany) following the manufacturer's instruction. 2×10^5 CD11c^+ DCs/well were plated in 96 well plates and cultivated for either 24 or 48 h in the presence of TLR7 ligand R-848 (10 μg/ml) and/or different concentrations of anthralin (solved in DMSO). […] Following cytokines were quantified using CBA technology: IL-1b; IL-6; IL-10; IL-12; IL-23; TNF-α.
# [4] = tested on: peptide-specific CD8+ T cells; test: Imiquimod based transcutaneous immunization (TCI), primary T cell response (tetramer flow cytometry, in vivo cytolytic activity, IFN-γ ELISpot); design: species or system C57BL/6 mice; conditions: for T cell activation (primary T cell response): 0.0625% in Vaseline on ear skin 24 h before TCI (IMI-Sol + OVA peptides), read-out day 7
# [5] = tested on: peptide-specific CD8+ T cells; test: Imiquimod based TCI, memory immune response (secondary T cell response), Day 35; type: in vivo, C57BL/6 mice; conditions: dithranol 0.0625% in Vaseline 24 h before TCI; read-out Day 35
# Experimental: C57BL/6 mice (n=3-8 per group) were immunized by TCI, performed as described in FIG. 1 (A) The frequency of peptide-specific CD8^+ T cells was assessed on Day 35 via flow cytometry. (B) The in vivo cytolytic activity was analyzed on Day 35, 20 h after transfer of peptide-loaded splenocytes. (C) IFN-γ production of splenocytes on Day 35 post the indicated treatments. Splenocytes were re-stimulated with the indicated peptides for 24 h before harvest and analysis by ELISpot assay. * Significance by One Way ANOVA with Bonferroni Posttest analysis; p<0.05 (*). […]
# For detecting in vivo cytolytic activity, splenocytes of syngenic wildtype mice were labeled with different amounts of 5,6-carboxyfluorescein diacetate succinimidyl ester (CFSE; Invitrogen, Carlsbad, USA) resulting in a CFSE^low and a CFSE^high population. […] Specific lysis was evaluated as following: Specific lysis (%)=100×(1−([…]). All analyses were performed with a LSRII Flow Cytometer and FACSDiva Software (Becton Dickinson, Franklin Lakes, USA). […]
# [6] = α-Tocopherol 600 U/kg i.p. 1 h before anthralin and/or TCI, day 7
smiles,measurement,setting,value
Oc1cc2ccccc2c2ccccc12 [9-phenanthrol],generation of a CD8+ T cell response,[1],enhances the generation of a CD8+ T cell response
"CC(C)Cn1cnc2c(N)nc3ccccc3c21 [Imiquimod, imiquimod]",survival of mice,[2],improve survival of mice
"CC(=O)N[C@@H](CS)C(=O)O [NAC, N-acetyl cysteine]","TLR7 mediated activation of DCs (CD40, CD80, CD86)",[3],activation phenotype is restored
O=C1c2cccc(O)c2C(=O)c2c(O)cccc21 [danthron],T cell activation (primary T cell response),[4],no impact on T cell activation
"O=C1c2c(O)cccc2Cc2cccc(O)c21 [dithranol, 1,8-dihydroxy-9-anthrone]",T cell activation including memory T cell formation (secondary T cell response),[5],synergistic effect on T cell activation on CD8 positive as well as CD4 positive T cells including memory T cell formation
same,"TLR7 mediated activation of DCs (CD40, CD80, CD86)",[3],suppresses the TLR7 mediated activation of DCs in vitro
same,T cell activation (primary T cell response),[4],synergistic effect on T cell activation on CD8 positive as well as CD4 positive T cells
same,site dependence of synergistic T cell activation,"[4]; TCI on both ears or only one ear, day 7",required at the same site (ear) to mediate synergistic T cell activation
Cc1c(C)c2c(c(C)c1O)CC[C@@](C)(CCC[C@H](C)CCC[C@H](C)CCCC(C)C)O2 [α-Tocopherol],CTL frequency (peptide-specific CD8+ T cells),[4]; [6],without affecting CTL frequency
same,in vivo cytolytic activity induced by dithranol (anthralin) TCI,[4]; [6],antagonizes the enhanced cytolytic activity induced by dithranol (anthralin) TCI
